{"source": "paper PMC9068721", "about": "“Evaluation of MxOy/fucoidan hybrid system and their application in lipase immobilization process” (Scientific Reports, 2022)", "tested_on": "T1, lipase from Aspergillus niger (LAN)", "T1 construct": "gene lipA; commercial Sigma-Aldrich lipase preparation from Aspergillus niger, free (not immobilized)", "experiment": "p-nitrophenol release at […] nm, Hanes-Woolf plot", "assay_type": "biochemical", "conditions": "free enzyme, 30 °C, 2 min, 1000 rpm; substrate solution range printed as 0.005–1.5 M; apparent"}
{"smiles": "CCCCCCCCCCCCCCCC(=O)Oc1ccc([N+](=O)[O-])cc1", "note": "[p-nitrophenyl palmitate]", "values": [{"measurement": "Km", "result": "580 ± 20", "unit": "µM"}]}
